Experimental data: US20140011755A1, “Cardiac Glycosides for Treating Autoimmune Disease” (Department of Veterans Affairs, priority 2010, published 2014)

How the values were obtained:
B cells from CIA mice = assay: RT-PCR cytokine gene expression in cells purified from CIA mice; format: cell-based; conditions: 33 nM and 100 nM, 45 minutes
Method: IL-10 (FIG. 20 A) and TGFβ1 (FIG. 20 B) levels were quantified. Samples were normalized against Ywhaz1 and Hprt1 housekeeping genes. […] Samples were examined in triplicates and the error bars represent the SEM. […] After 30 minutes, cells were washed, lysed and mRNA was isolated with Trizol (Invitrogen). RT-PCR was performed on mRNA and samples were normalized against housekeeping genes, Ywhaz1 and Hprt1. Data represent the average fold change in IL-10 gene expression compared to media alone. Error bars represent SEM of triplicates.
RT-PCR was performed and TGFβ1, IL-10 and IL-6 mRNA levels were quantified. Sample cDNA levels were normalized against housekeeping genes Ywhaz1 and Hprt1. Data represent the average fold change in IL-10 gene expression compared to media alone. Error bars represent SEM of triplicates.
RT-PCR was performed and TGFβ1 and IL-10 levels were quantified and samples were normalized against Ywhaz1 and Hprt1. Data represent the average fold gene induction of triplicates and error bars represent SEM.

BAFFR = assay: BAFF-mediated stimulation of B cells; format: cell-based, mice; conditions: 33 nM pre-treatment, BAFF 0.5 or 5 μg/ml
Method: (§1) Activity was monitored by ^3H-thymidine incorporation as a read-out for proliferation. […] Cell type(s) in the splenocyte population responsive to therapeutic concentrations of cardiac glycoside were determined by identifying the population of cells that responded to a dose-dependent decrease in activity in the presence of stimulant, defined as ligand(s) binding to cognate receptor(s). Activity was analyzed by: ^3H-thymidine or BrdU incorporation to monitor proliferation or by ELISA to monitor cytokine production. Splenic T lymphocytes were isolated by negative selection (MACS, Miltinyi Biotec) and are stimulated with PMA, ConA or through the TCR with anti-CD3/anti-CD28 Dynabeads (Invitrogen) and collagen II (all non-TNFR receptors/pathways). […] Peritoneal and bone marrow-derived macrophages were isolated from CIA mice in the presence of M-CSF growth factor and were stimulated with TNF and CD40 ligand (CD40L). […] Splenic B lymphocytes were isolated by negative selection (MACS, Miltinyi Biotec) and were stimulated with BAFF (BLyS), CD40L or through the BCR with anti-IgM u-chain specific antibodies.

CD40 = target: T1, CD40 (Mus musculus, UniProt P27512); assay: CD40-mediated B cell proliferation (anti-CD40, CD40L); format: cell-based, mice; conditions: pre-treatment of B cells
T1 construct: Peritoneal and bone marrow-derived macrophages were isolated from CIA mice; endogenous in cells; host or cells: peritoneal and bone marrow-derived macrophages from CIA mice
T1 sequence (P27512 20-289): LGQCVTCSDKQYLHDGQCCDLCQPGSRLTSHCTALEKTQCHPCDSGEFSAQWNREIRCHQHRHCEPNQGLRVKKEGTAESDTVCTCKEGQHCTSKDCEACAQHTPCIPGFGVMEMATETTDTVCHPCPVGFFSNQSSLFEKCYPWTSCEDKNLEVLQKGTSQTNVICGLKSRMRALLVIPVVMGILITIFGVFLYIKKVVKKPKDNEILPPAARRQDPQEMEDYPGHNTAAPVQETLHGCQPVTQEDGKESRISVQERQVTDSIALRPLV
Method: as §1

MRL-Ipr splenic B cells = assay: ANA production by MRL-Ipr splenic B cells in vitro; format: cell-based, mice; conditions: 2×10^5 vehicle-treated MRL-Ipr splenic B cells, 33 nM
[1] = tested on: naïve CD4+ T cells, Th17 differentiation; assay: Th17 T cell differentiation in co-culture with pre-treated CIA B cells; format: cell-based, mice; conditions: B cells treated 33 nM for 30 minutes, washed, co-culture 72 hr in Th17 differentiation media
Method: FIG. 24. […] At endpoint, IL-17 cytokine levels were quantified by ELISA (R&D Systems). (B) IL-10 cytokine production was also assessed in each sample by ELISA (eBiosciences). Data represent the average of triplicates and error bars represent the SEM. Statistical significance was determined by the students t-test.
It is known that B cells can regulate T cell differentiation and in many states of autoimmune disease, an imbalance of Th1, Th2, and Th17 T cell populations exist. […] We performed studies to determine the regulatory effector function of B cells pre-treated with cardiac glycoside on T cell differentiation. B cells blocked naïve CD4^+ T cell differentiation into Th17 cells when cardiac glycoside was administered to B cells 30 minutes prior to co-culture with T cells (FIG. 24 A). Additionally, the pre-treatment of B cells with cardiac glycoside inhibited Th17 differentiation in a STAT3-dependent manner (FIG. 25A). […] Cardiac glycosides can be administered to patients to induce IL-10 expressing B cells and to modulate T cell differentiation and increase numbers of Tregs which reduce autoimmune disease progression.

[2] = Human, oral; Smith, TW (1970); cited from earlier work
SLE-like disease = assay: MRL-Ipr mouse model of systemic lupus erythematosus; format: in vivo, MRL-Ipr female mice
Method: FIG. 16. […] SLE-like disease progression in MRL-Ipr female mice (Jackson Laboratories) was evaluated. Briefly, 10 mice per treatment arm were followed for the development of SLE-like disease over the course of 16 weeks. […] Animals were scored on a weekly basis for proteinuria and survived until 23 weeks of age. Data represent the average proteinuria concentration in urine collected from each mouse using Uristix (Bayer Corp.). Error bars represent SEM. The Mann-Whitney test was used to determine significance between vehicle and digitoxin groups. Asterisks represent significant P values <0.01.
FIG. 17. […] At endpoint, 23 week old female MRL-Ipr mice were sacrificed and kidneys were fixed, embedded in paraffin, sectioned longitudinally and stained for glomeruli with periodic acid-Schiff stain (Histotec). (A) Depiction of a section taken from a representative vehicle treated kidney. (B) Depiction of a section taken from a representative digitoxin treated kidney.
FIG. 18. […] Endpoint serum titers were taken for each mouse and the concentration of anti-double-stranded DNA (ANA) antibodies were assessed (A). […] ANA antibodies were measured using ELISA (Alpha Diagnostic International). Error bars represent the SEM. The student t-test was used to determine significance. Asterisks represent significant P values.
Cardiac glycosides are used for the treatment of systemic lupus erythematosus and other forms of multi-system inflammatory diseases. […] Studies are conducted to determine the ability of cardiac glycosides to treat SLE. The effectiveness of cardiac glycosides at treating SLE disease progression in MRL-Ipr female mice (Jackson Laboratories) was evaluated. Briefly, 10 mice per experimental arm were followed for the development of SLE disease. […] Animals were scored on a weekly basis for proteinuria and survived until 23 weeks of age (FIG. 16). Weekly proteinuria monitoring was performed using Uristix (Bayer Corp.). […] Endpoint serum titres of double-stranded DNA (ANA) antibodies for each mouse were assessed (FIG. 18 A). […] ANA antibodies were measured using ELISA (Alpha Diagnostic International). […]

[3] = oral; cited from earlier work
[4] = tested on: splenocytes derived from mice with CIA; assay: CIA splenocyte proliferation (3H-thymidine incorporation); format: cell-based
Method: as §1

[5] = tested on: B cell receptor (membrane Ig); assay: B cell receptor mediated B cell proliferation; format: cell-based, mice; conditions: pre-treatment of B cells; anti-IgM stimulation
Method: as §1

Structure (SMILES): C[C@H]1O[C@@H](O[C@H]2[C@@H](O)C[C@H](O[C@H]3[C@@H](O)C[C@H](O[C@H]4CC[C@@]5(C)[C@H](CC[C@@H]6[C@@H]5CC[C@]5(C)[C@@H](C7=CC(=O)OC7)CC[C@]65O)C4)O[C@@H]3C)O[C@@H]2C)C[C@H](O)[C@@H]1O [Digitoxin, digitoxin]
- IL-6 mRNA expression in B cells (B cells from CIA mice): inhibit IL-6 expression
- IL-10 mRNA expression in B cells (B cells from CIA mice): induce
- TGFβ1 mRNA expression in B cells (B cells from CIA mice): induce
- BAFF-mediated stimulation of B cells through BAFFR (BAFFR): inhibited BAFF-mediated stimulation
- CD40L-mediated B cell proliferation (CD40): inhibited CD40L-mediated proliferation
- anti-CD40 mediated B cell proliferation (CD40): prevented anti-CD40 mediated B cell proliferation
- ANA production in vitro at 72 hours (MRL-Ipr splenic B cells): blockade of autoantibody production
- Th17 cell differentiation (IL-17 by ELISA) [1]: down-regulates Th17 cell differentiation
- Serum conc. [2]: 17 ng/mL
- disease severity (average proteinuria) in experimental lupus (SLE-like disease; 0.6 mg/kg every-4-days sublingual from week 8, 10 mice per arm, Mann-Whitney P<0.01): decrease disease severity
- kidney pathology (periodic acid-Schiff stained glomeruli) (SLE-like disease; 23 week old mice at endpoint, 0.6 mg/kg every-4-days sublingual): decrease kidney pathology
- endpoint serum anti-double-stranded DNA (ANA) antibodies (SLE-like disease; endpoint serum, ELISA): inhibit autoantibody production
- oral bioavailability [3]: > 90%
- proliferation of unstimulated or collagen II-stimulated splenocytes [4]: inhibits the proliferation
- B cell receptor mediated B cell proliferation [5]: did not inhibit
